Reference: US10968214B2, “KRas G12C inhibitors” (Eli Lilly and Company, priority 2018, dated 2021)
Like-named read-outs stand apart in the source and are kept apart here.

Target: T1, active KRas in H2122 xenograft tumors (Homo sapiens, UniProt P01116, G12C)
T1 construct: from tissue; host or cells: H2122 xenograft tumours from nude mice
Assay: In vivo target inhibition/PD, H2122 xenograft, active KRas
Conditions: NCI-H2122, mouse; for inhibition at 10 mg/kg: 10 mg/kg single dose; for inhibition at 30 mg/kg: 30 mg/kg single dose
Protocol: To evaluate in vivo target inhibition and anti-tumor efficacy of a compound, Human lung cancer cells, H358 or H2122 are implanted into nude mice xenograft tumor models. Either H358 or H2122 cells (10×10^6 in a 1:1 Matrigel® mix, 0.2 mL total volume) are implanted by subcutaneous injection in hind leg of nude female mice (Harlan Laboratories). A total of 5 mice each group are used for efficacy study, and a total of 3-4 mice each group are used for target engagement and PD study. Treatment is initiated with oral administration (gavage) of a test compound or vehicle (20% Captisol®, 25 mM phosphate, pH 2.0 in 0.2 mL volume when the tumor size reaches approximately […]. Tumor growth and body weight are monitored over time to evaluate efficacy and signs of toxicity. Bidimensional measurements of tumors are performed twice a week and tumor volumes are calculated based on mid-axis length and mid-axis width. Tumor volume data are transformed to a log scale to equalize variance across time and treatment groups. The log volume data are analyzed with a two-way repeated measures analysis of variance by time and treatment using the mixed procedures in SAS software (version 8.2). The correlation model for the repeated measures is spatial power. Treated groups are compared to the control group at each time point. The mixed procedure is also used separately for each treatment group to calculate adjusted means and standard errors at each time point. Both analyses account for the autocorrelation within each animal. The adjusted means and standard errors are plotted for each treatment group versus time.
For in vivo target inhibition and PD analysis, tumors are ground by mortar and pestle on dry ice and tumor fragments are added to 800 μL of lysis buffer containing 1% Triton X100, 25 mM Tris pH 7.5, 150 mM NaCl, 1 mM EDTA, and 1 mM EGTA with Halt protease and phosphatase inhibitor cocktail (Thermo Scientific, cat. no. 1861281) in lysing matrix D tubes (MP Biomedical®, cat. no. 6913-500) with one additional large bead (MP Biomedical® ¼″ ceramic sphere bead cat. no. 6540-412) per tube. Tumor fragments are homogenized in a Thermo Bio101® fast prep (FP120) at setting 4 for […] while cold for a total of 2 times. Lysates are spun at 14,000 rpm for 10 min at 4° C. to clarify. Protein estimation is done on the lysate supernatant using a BioRad Dc® protein assay and lysates are diluted in complete lysis/binding buffer from the Ras GTPase Chemi ELISA Kit® (Active Motif, cat. no. 52097). The active KRas ELISA was performed as follows: Glutathione-coated ELISA wells were incubated with diluted RAF1-GST in complete lysis/binding buffer for 1 hr at 4° C. with gentle agitation. Wells are washed 3 times with wash buffer and 100 μg of lysates are added to each well and incubated at RT for 1 hr with mild agitation. The wells are washed an additional 3 times, then primary antibody, diluted in antibody binding buffer, is added to each well. The plates are incubated for 1 hr. The wells are washed 3 more times before adding HRP-conjugated secondary antibody, diluted in antibody binding buffer, to each well. The plates are incubated at RT for 1 hr. ELISA wells are washed 4 times, chemiluminescent reagents is added and then luminescence is read. For pERK Meso Scale Discovery ELISA, 25 μg of protein containing 0.1% SDS is used; for pMEK Meso Scale Discovery ELISA, 50 μg of protein without SDS is used. Meso Scale Discovery Whole Cell Lysate Kits for pERK and pMEK are provided by Meso Scale Discovery.
After a single dose, the tumor samples are harvested at different time points. The tumor lysates are prepared as described above. The inhibition of pERK, pMEK, and active KRas is measured as described above.

[1] = 2 hr, read-out: % Inhibition Active KRas
[2] = 4 hr, read-out: % Inhibition Active KRas
[3] = 8 hr, read-out: % Inhibition Active KRas
[4] = 12 hr, read-out: % Inhibition Active KRas
[5] = 24 hr, read-out: % Inhibition Active KRas

T1 sequence (P01116 1-188 isoform P01116-2 G12C): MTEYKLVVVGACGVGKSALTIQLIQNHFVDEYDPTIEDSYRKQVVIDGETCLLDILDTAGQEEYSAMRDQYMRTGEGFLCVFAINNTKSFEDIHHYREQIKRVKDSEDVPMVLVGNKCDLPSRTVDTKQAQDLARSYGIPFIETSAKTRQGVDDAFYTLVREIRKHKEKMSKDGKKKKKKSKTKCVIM

C=CC(=O)N1CCN(c2ncnc3c(F)c(-c4ccc(F)c5sc(N)nc45)c(Cl)cc23)CC1 [Example 1, 1-{4-[7-(2-Amino-7-fluoro-1,3-benzothiazol-4-yl)-6-chloro-8-fluoroquinazolin-4-yl]piperazin-1-yl}prop-2-en-1-one]
inhibition at 10 mg/kg [1]: 25.8% | inhibition at 10 mg/kg [2]: 32.3% | inhibition at 10 mg/kg [3]: 34.7% | inhibition at 10 mg/kg [4]: 37.1% | inhibition at 10 mg/kg [5]: 16.7% | inhibition at 10 mg/kg (from 2-12 hr, read-out: active KRas inhibition): 26 to 37% | inhibition at 30 mg/kg [1]: 57.5% | inhibition at 30 mg/kg [2]: 78.8% | inhibition at 30 mg/kg [3]: 67% | inhibition at 30 mg/kg [4]: 46.5% | inhibition at 30 mg/kg [5]: 26.1% | inhibition at 30 mg/kg (from 2-[…], read-out: active KRas inhibition): 26 to 79% | inhibition at 100 mg/kg (100 mg/kg single dose, 4 hr): 90.6%
